What was measured:
Assay type in all cases: cell-based
[1] = tested on: NCI-H1792 cells; assay: Anti proliferative activity in NCI-H1792 cells by XTT assay; settings: Homo sapiens, NCI-H1792, 72 h, H1792 cell line
Protocol: Example 78: Determination of Anti Proliferative Activity in NCI-H1792 Cells by XTT Assay
NCI-H1792 cells (ATCC CRL-5895) were plated at 2000 cells/well in 96 well flat clear bottom plates (Corning, Cat. No 3596) using complete RPMI media. After 24 hours, compounds of present invention were added to cells from 20 mM stocks made in DMSO (Sigma Cat no. D2650). Each concentration of compound was tested in triplicate with DMSO concentration not exceeding a final percentage of 0.3 in the cells. After 72 hours of incubation in CO2 incubator, XTT (Invitrogen, Cat. no X6493) was added to the wells. XTT was dissolved in serum free media at 1 mg/ml and absorbance readings were taken in spectrophotometer at 465 nm. The data was analysed using graph pad prism software. Positive control (100% survival)=Cells in complete media with 0.3% DMSO; Negative control/blank (0% survival)=Media alone containing 0.3% DMSO.
(§1) The compounds of the present invention were screened in the above mentioned assay and the results are tabulated below.

[2] = tested on: NCI-H2122 cells; assay: Anti proliferative activity in NCI-H2122 cells by XTT assay; settings: Homo sapiens, NCI-H2122, 192 h, H2122 cell line, at 30 μM, 8 days
Protocol: Example 79: Determination of Anti Proliferative Activity in NCI-H2122 Cells by XTT Assay
NCI-H2122 cells (ATCC CRL-5985) were plated at 1000 cells/well in 96 well flat clear bottom plates (Corning, Cat. No 3596) using complete RPMI-1640 media. After 24 hours, compounds of present invention were added to cells from 10 mM stocks made in DMSO (Sigma Cat no. D2650). Each concentration of compound was tested in triplicate with DMSO concentration not exceeding a final percentage of 0.3 in the cells. Complete RPMI-1640 media changed at Day 3 (72 hour) and Day 6 (144 hour) along with compounds of current invention. After 8 days (192 hour) of incubation assay terminated using 50 μl of XTT reagent (Invitrogen, Cat. no X6493). XTT reagent was made by dissolving 1 mg/mi XTT in serum free media with addition of 25 μM Phenazine methosulfate (sigma Cat. no P9625). Absorbance readings were taken in spectrophotometer at 465 nm. The data was analysed using graph pad prism software. Positive control (100% survival)=Cells in complete media with 0.3% DMSO; Negative control/blank (0% survival)=Media alone containing 0.3% DMSO.
as §1

[3] = tested on: OCI-Ly10 cells; assay: Anti proliferative activity in OCI-Ly10 cells (CTG luminescence); settings: Homo sapiens, OCI-Ly10, 72 h
Protocol: Example 80: Determination of Anti Proliferative Activity in OCI-Ly10 Cells
OCI-Ly10 cells (UHN Canada) were plated at 7500 cells/well in 96 well flat bottom plates (Corning, Cat. No CLS3904) using complete Iscove's Modified Dulbecco's Medium (IMDM. After 6 hours, compounds from the present invention were added to the cells from 10 mM stocks made in DMSO (Sigma, Cat. No D2650). Each concentration of compound was tested in triplicates with DMSO concentration not exceeding a final percentage of 0.1 in the cells. After 72 hours of incubation in CO2 incubator, CTG (Promega, Cat. No G7572) was added to the wells and Luminescence readings were taken in the plate reader. Percent inhibition in proliferation was calculated using Microsoft Excel software. Positive control (100% survival)=Cells in complete media with 0.1% DMSO; Negative control/blank (0% survival)=Media alone containing 0.1% DMSO.

Q: Which results are given for C=CS(=O)(=O)N[C@H]1CC[C@@H](NC(=O)NC(C)C#Cc2ccc(Cl)c(Cl)c2)CC1 (mixture of isomers) [Example 50, N-((1s, 4s)-4-(3-(4-(3,4-dichlorophenyl)but-3-yn-2-yl)ureido)cyclohexyl) ethenesulfonamide]?
A: IC50 ([1]; 72 hours incubation): < 10 µM; viability at 30 µM ([1]; at 30 μM, 72 hours): 17%; viability at 30 µM [2]: 1%; inhibition at 1 µM ([3]; at 1 μM): 32%; inhibition at 10 µM ([3]; at 10 μM): 48%
